Laboratory results reported in patent US10221174B2, “N-(phenylsulfonyl)benzamides and related compounds as BCL-2 inhibitors” (THE REGENTS OF THE UNIVERSITY OF MICHIGAN, priority 2016, dated 2019).
Like-named read-outs stand apart in the source and are kept apart here.

How the values were obtained:
[1] = system: RS4;11 leukemia xenograft; test: RS4;11 leukemia xenograft model; assay type: in vivo; conditions: nude mice, oral gavage
Description: The antitumor activity of Cpd. No. 6 (compound 6) was also studied in the RS4;11 leukemia xenograft model. Human RS4;11 tumor cells were injected into nude mice and treatment started on day 11 when the tumor size reached approximately 100 mm^3. Cpd. No. 6 was administered via oral gavage at indicated doses and schedules. Cpd.

RS4;11 cells = test: RS4;11 cell viability, CCK-8 assay; assay type: cell-based; conditions: Homo sapiens, RS4-11, 96 h, CCK-8, 4 days, read-out: RS4, 11 IC50 (Bcl-2 dependent)
In short: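 RS4;11 cells seeded at 10000 cells/well in medium with 10% FBS, cultured overnight, then exposed to serially diluted compound for 4 days at 37° C., 5% CO2. Viability by CCK-8 absorbance at 450 nm, normalized to vehicle; IC50 by nonlinear regression.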

Pharmacokinetics in rats = assay type: in vivo
Description: The pharmacokinetics of ABT-199 and representative Compounds of the Disclosure were evaluated in rats at an IV dose of 2 mg/kg and an oral dose of 20 mg/kg.

Mcl-1 = Mcl-1 (Homo sapiens (Human), UniProt Q07820); test: Fluorescence polarization competitive binding assay, Mcl-1; conditions: FP competition, 20 nM Mcl-1, 2 nM Flu-BID probe; read-out: Inhibitory activity IC50 Mcl-1
Chain of Mcl-1 (Q07820 whole entry): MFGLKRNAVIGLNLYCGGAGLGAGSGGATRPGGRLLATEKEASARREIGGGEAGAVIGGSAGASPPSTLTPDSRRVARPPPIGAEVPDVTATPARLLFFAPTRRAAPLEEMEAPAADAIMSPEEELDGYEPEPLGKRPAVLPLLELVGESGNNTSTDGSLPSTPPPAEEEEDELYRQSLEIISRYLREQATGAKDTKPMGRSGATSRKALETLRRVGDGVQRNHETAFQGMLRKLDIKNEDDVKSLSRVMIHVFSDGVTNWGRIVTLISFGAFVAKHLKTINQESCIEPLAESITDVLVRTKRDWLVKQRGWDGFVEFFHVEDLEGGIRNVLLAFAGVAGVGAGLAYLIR
Description: Fluorescence polarization values were measured using the Infinite M-1000 plate reader (Tecan U.S., Research Triangle Park, N.C.) in Microfluor 1 96-well, black, round-bottom plates (Thermo Scientific). […] Plates were mixed and incubated at room temperature for 1 hour with gentle shaking to assure equilibrium. […] Equilibrium dissociation constants (Kd) were then calculated by fitting the sigmoidal dose-dependent FP increases as a function of protein concentrations using Graphpad Prism 5.0 software (Graphpad Software, San Diego, Calif.).
Mixtures of 5 μl of the tested inhibitors in DMSO and 120 μl of pre-incubated protein/probe complexes in the assay buffer were added into assay plates and incubated at room temperature for 2 hours with gentle shaking. […] FP values were measured as described above. IC50 values were determined by nonlinear regression fitting of the competition curves.

O=C(NS(=O)(=O)c1ccc(NC[C@H]2COCCO2)c([N+](=O)[O-])c1)c1ccc(N2CCN(CC3=C(c4ccc(Cl)cc4)CC4(CCC4)CC3)CC2)cc1Oc1cnc2[nH]ccc2c1 [Cpd. No. 6, (S)-N-((4-(((1,4-dioxan-2-yl)methyl)amino)-3-nitrophenyl)sulfonyl)-2-((1H-pyrrolo[2,3-b]pyridin-5-yl)oxy)-4-(4-((6-(4-chlorophenyl)spiro[3.5]non-6-en-7-yl)methyl)piperazin-1-yl)benzamide]
mouse weight ([1]; FIG. 4): does not cause weight loss in mice
antitumor activity (tumor growth) ([1]; treatment from day 11, FIG. 3): inhibits tumor growth
IC50 (RS4;11 cells): 5.5 nM
AUC0-∞ IV (Pharmacokinetics in rats; IV 2 mg/kg): 2915 n · gh/mL
AUC0-∞ PO (Pharmacokinetics in rats; oral 20 mg/kg): 13475 n · gh/mL
F(AUC0-t) (Pharmacokinetics in rats; oral 20 mg/kg vs IV 2 mg/kg): 46.2%
MRT inf (Pharmacokinetics in rats; rat, in vivo, IV 2 mg/kg): 2.09 h
AUC(0-t) (Pharmacokinetics in rats; rat, in vivo, IV 2 mg/kg, read-out: AUC0-t IV): 2900 ng·h/mL
clearance (Pharmacokinetics in rats; rat, in vivo, IV 2 mg/kg, read-out: CL (iv) (converted)): 11.6 mL/min/kg
Cmax (Pharmacokinetics in rats; rat, in vivo, IV 2 mg/kg, read-out: Cmax IV): 4170 ng/mL
Tmax (Pharmacokinetics in rats; rat, in vivo, IV 2 mg/kg, read-out: Tmax IV): 0.083 h
Vd (Pharmacokinetics in rats; rat, in vivo, IV 2 mg/kg, read-out: Vss (iv)): 1.44 L/kg
half-life (Pharmacokinetics in rats; rat, in vivo, IV 2 mg/kg, read-out: t1/2 IV (converted)): 4.39 h
AUC(0-t) (Pharmacokinetics in rats; rat, in vivo, oral 20 mg/kg, read-out: AUC0-t PO): 13400 ng·h/mL
Cmax (Pharmacokinetics in rats; rat, in vivo, oral 20 mg/kg, read-out: Cmax PO): 2620 ng/mL
Tmax (Pharmacokinetics in rats; rat, in vivo, oral 20 mg/kg, read-out: Tmax PO): 2.67 h
half-life (Pharmacokinetics in rats; rat, in vivo, oral 20 mg/kg, read-out: t1/2 PO (converted)): 3.12 h
IC50 (Mcl-1): > 5000 nM
